Source: patent US8637702B2, “Derivatives of N-hydroxybenzamide for treating HIV infections” (Italfarmaco S.p.A., priority 2009, dated 2014)

What was measured:
HDAC3 = HDAC3 (Homo sapiens, UniProt O15379); experiment: Inhibition of histone deacetylase isoforms, HDAC3
Description: (§1) Recombinant human enzymes were acquired from BPS Biosciences (CA, USA). Isoforms of Class I HDAC1, 2, 3; HDAC6, 10 of Class IIb and Class IV HDAC11 were tested using the Fluor-de-Lys fluorogenic synthetic substrate (Enzo Life Sciences, Plymouth Meeting, Pa.). […] The recombinant human HDAC8 assay was performed using HDAC8 Fluorimetric Drug Discovery Kit (Enzo) according to the manufacturer instructions. Each inhibitor was dissolved in DMSO and then further diluted in an assay buffer. […] The assays were performed by pre-incubating each enzyme with the inhibitors for 15 minutes at 37° C. The reaction was started by adding the substrate at 37° C. and allowed to proceed for 60 minutes. The fluorescent signal was generated by adding 50 μL of a twice concentrated developer solution 2 (Enzo) containing trichostatin A 4 μM.

HDAC8 = target: T1, HDAC8 (Homo sapiens, UniProt Q9BY41); experiment: Inhibition of histone deacetylase isoforms, HDAC8
T1 sequence (Q9BY41 1-377): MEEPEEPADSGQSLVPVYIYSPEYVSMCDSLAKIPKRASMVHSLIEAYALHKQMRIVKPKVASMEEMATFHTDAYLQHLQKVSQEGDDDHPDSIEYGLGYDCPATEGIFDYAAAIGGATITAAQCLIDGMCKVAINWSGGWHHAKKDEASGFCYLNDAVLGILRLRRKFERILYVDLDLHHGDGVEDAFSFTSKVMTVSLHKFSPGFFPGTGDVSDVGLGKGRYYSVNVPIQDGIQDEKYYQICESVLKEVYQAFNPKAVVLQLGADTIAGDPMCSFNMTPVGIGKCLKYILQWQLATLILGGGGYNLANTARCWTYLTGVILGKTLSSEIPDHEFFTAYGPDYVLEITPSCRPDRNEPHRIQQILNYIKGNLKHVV
Description: as §1

HDAC6 = target: T2, HDAC6 (Homo sapiens, UniProt Q9UBN7); experiment: Inhibition of histone deacetylase isoforms, HDAC6
T2 sequence (Q9UBN7 1-1215): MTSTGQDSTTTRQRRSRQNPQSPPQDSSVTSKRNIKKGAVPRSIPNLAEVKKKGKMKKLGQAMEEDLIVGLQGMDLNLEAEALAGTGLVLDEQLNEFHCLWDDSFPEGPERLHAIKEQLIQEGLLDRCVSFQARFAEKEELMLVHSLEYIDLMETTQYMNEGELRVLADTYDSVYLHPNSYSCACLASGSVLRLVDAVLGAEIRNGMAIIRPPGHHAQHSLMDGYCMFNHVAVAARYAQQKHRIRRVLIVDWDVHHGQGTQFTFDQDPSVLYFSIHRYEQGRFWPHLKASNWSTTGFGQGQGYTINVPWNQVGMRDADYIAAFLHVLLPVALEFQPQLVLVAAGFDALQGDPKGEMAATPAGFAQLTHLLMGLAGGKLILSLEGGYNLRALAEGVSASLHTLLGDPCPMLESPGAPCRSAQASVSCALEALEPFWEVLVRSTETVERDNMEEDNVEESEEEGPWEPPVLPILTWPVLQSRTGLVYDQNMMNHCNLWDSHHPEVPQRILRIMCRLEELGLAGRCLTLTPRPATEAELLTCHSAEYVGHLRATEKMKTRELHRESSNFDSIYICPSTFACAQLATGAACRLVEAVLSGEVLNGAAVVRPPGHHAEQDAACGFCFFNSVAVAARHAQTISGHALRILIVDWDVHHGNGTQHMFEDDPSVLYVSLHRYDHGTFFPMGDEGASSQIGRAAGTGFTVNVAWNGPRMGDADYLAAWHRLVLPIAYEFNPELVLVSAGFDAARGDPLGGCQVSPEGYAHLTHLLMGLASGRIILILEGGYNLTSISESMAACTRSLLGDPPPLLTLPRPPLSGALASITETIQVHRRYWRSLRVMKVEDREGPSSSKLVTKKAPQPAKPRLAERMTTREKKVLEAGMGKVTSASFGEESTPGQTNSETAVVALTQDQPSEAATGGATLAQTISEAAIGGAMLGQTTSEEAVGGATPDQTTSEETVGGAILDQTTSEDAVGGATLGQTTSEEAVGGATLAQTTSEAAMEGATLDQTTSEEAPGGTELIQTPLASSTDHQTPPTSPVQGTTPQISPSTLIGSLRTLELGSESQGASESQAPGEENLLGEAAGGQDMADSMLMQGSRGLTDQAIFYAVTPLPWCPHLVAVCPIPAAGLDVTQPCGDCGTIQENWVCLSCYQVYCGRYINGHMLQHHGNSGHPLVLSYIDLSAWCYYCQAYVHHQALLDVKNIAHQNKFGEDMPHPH
Description: as §1

HDAC11 = target: T3, HDAC11 (Homo sapiens, UniProt Q96DB2); experiment: Inhibition of histone deacetylase isoforms, HDAC11
T3 sequence (Q96DB2 1-347): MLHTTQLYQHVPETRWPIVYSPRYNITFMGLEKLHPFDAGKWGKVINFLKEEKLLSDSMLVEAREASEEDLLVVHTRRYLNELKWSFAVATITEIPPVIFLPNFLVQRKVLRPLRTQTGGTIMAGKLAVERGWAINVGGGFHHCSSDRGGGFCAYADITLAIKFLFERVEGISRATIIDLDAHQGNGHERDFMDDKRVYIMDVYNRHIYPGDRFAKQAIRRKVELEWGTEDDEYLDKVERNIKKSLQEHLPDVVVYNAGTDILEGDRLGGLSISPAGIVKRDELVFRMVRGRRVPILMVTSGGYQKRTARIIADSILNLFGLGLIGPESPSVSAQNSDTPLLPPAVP
Description: (§2) Recombinant human enzymes were acquired from BPS Biosciences (CA, USA). Isoforms of Class I HDAC1, 2, 3; HDAC6, 10 of Class IIb and Class IV HDAC11 were tested using the Fluor-de-Lys fluorogenic synthetic substrate (Enzo Life Sciences, Plymouth Meeting, Pa.). […] Each inhibitor was dissolved in DMSO and then further diluted in an assay buffer. […] The assays were performed by pre-incubating each enzyme with the inhibitors for 15 minutes at 37° C. The reaction was started by adding the substrate at 37° C. and allowed to proceed for 60 minutes. The fluorescent signal was generated by adding 50 μL of a twice concentrated developer solution 2 (Enzo) containing trichostatin A 4 μM.

HDAC9 = HDAC9 (Homo sapiens, UniProt Q9UKV0); experiment: Inhibition of histone deacetylase isoforms, HDAC9
Chain of HDAC9 (Q9UKV0 whole entry, canonical isoform): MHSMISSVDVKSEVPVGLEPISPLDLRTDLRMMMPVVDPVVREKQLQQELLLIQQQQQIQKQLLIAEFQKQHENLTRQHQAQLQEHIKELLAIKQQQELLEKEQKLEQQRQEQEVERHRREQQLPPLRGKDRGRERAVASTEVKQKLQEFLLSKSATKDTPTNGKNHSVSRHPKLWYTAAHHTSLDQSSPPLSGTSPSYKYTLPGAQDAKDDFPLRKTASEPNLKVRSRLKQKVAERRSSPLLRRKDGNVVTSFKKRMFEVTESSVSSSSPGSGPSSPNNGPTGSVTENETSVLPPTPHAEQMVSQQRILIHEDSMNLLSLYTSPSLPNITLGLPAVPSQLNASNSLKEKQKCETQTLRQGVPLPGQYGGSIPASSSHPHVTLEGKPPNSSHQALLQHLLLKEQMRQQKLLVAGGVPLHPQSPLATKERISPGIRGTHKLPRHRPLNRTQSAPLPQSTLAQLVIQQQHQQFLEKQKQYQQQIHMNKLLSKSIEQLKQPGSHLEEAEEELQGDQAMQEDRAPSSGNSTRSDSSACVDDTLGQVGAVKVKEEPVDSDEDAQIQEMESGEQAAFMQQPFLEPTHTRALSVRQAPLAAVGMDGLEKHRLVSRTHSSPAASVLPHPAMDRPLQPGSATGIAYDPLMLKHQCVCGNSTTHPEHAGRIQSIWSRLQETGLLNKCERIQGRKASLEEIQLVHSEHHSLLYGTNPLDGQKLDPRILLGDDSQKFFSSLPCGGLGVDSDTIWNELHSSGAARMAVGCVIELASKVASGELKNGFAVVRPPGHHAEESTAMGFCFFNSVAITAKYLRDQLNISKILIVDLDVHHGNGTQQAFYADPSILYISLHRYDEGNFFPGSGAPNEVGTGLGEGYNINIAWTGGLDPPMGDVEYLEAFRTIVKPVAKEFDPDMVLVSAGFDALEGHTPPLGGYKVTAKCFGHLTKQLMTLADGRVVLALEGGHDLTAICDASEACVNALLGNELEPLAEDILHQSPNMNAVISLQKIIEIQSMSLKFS
Description: as §2

HDAC1 = HDAC1 (Homo sapiens, UniProt Q13547); experiment: Inhibition of histone deacetylase isoforms, HDAC1
Chain of HDAC1 (Q13547 whole entry, canonical isoform): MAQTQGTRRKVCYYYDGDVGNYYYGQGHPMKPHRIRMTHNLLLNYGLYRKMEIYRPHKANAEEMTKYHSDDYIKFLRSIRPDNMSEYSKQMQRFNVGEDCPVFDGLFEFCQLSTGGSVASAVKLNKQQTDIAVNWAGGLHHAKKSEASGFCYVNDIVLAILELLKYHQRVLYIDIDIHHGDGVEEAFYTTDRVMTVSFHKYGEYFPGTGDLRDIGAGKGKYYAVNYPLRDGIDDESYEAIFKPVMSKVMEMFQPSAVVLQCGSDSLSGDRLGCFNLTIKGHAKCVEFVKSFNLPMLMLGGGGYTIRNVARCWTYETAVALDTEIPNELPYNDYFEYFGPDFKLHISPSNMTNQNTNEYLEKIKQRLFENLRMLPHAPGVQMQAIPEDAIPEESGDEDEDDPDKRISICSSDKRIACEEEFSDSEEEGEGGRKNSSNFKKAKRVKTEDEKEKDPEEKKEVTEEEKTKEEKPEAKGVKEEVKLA
Description: as §2

Chain of HDAC3 (O15379 whole entry, canonical isoform): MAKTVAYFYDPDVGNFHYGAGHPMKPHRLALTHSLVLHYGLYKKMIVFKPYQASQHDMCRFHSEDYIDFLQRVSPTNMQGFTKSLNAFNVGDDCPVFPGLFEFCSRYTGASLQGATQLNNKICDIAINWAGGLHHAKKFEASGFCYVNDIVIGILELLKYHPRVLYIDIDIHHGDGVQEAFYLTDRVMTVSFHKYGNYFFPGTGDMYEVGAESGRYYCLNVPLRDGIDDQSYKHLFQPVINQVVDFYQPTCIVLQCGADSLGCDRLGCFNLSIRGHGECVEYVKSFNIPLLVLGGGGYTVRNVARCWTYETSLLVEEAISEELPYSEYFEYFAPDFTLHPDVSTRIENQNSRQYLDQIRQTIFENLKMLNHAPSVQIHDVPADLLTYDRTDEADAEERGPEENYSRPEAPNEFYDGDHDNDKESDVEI
Chain of HDAC3 (Q9Y618 395-489 partner limits assumed): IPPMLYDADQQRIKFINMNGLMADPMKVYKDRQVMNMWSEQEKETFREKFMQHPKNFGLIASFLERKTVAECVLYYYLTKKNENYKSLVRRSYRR

| SMILES | IC50 (HDAC3) | IC50 (HDAC8) | IC50 (HDAC6) | IC50 (HDAC11) | IC50 (HDAC9) | IC50 (HDAC1) |
| --- | --- | --- | --- | --- | --- | --- |
| O=C(NO)c1ccc(NC(=O)[C@H](Cc2ccc3ccccc3c2)NC(=O)c2ccc3c(c2)OCO3)cc1 [Compound t, benzo[1,3]dioxole-5-carboxylic acid [1(S)-(4-hydroxycarbamoyl-phenylcarbamoyl)-2-naphtalen-2-yl-ethy]-amide] | 107 nM | 162 nM | 618 nM | 336 nM | > 10000 nM | 71.5 nM |
| O=C(NO)c1ccc(NC(=O)[C@H](Cc2ccc3ccccc3c2)NC(=O)c2ccccc2)cc1 [Compound g, 4-(2(S)-benzoylamino-3-naphtalen-2-yl-propionylamino)-N-hydroxy-benzamide] | 246 nM | 492 nM | 3620 nM | 441 nM | 4150 nM | 54.7 nM |
